Reference: patent US20110091570A1, “Compositions and Devices for Antisepsis and Anticoagulation” (priority 2008, published 2011)
“And” between values parts separate entries of the source, which are not always exact repeats. Equal values may be shown once.

Assays:
Type in all cases: biochemical, human
Antithrombin III = Antithrombin III in citrate blood; details: Example 7; for Antithrombin III: individual subjects 1-11; for Antithrombin III, mean value: mean of 11 subjects
Protocol: (§1) Whole blood was taken from 11 volunteers and enriched with trisodium citrate (0.3 mL of a 0.106 molar solution per 3 mL whole blood) (S-Monovette®, Sarstedt, Nümbrecht, Germany). Commercial coagulation tests (as described in Example 6) were performed with the following samples: […]

citrate blood [1] = assay: Thrombin time (TT), BC Thrombin Reagent test; details: for TT / TT (sec): Example 6, single volunteer; for Thrombin time (TT) / Thrombin time (TT), mean value: Example 7; for Thrombin time (TT): individual subjects; for Thrombin time (TT), mean value: mean of 11 subjects
Protocol: (§2) Whole blood was taken from volunteers and enriched with trisodium citrate (0.3 mL of a 0.106 molar solution per 3 mL whole blood) (S-Monovette®, Sarstedt, Nümbrecht, Germany). Routine coagulation tests were performed on the following samples:
(§3) The following commercial coagulation tests were performed according to the prescription of the manufacturer: prothrombin time (PT) was determined using Thromborel® S test (Dade Behring GmbH, Marburg, Germany); activated partial thromboplastin time (aPTT) was determined using Pathromtin* SL test (Dade Behring GmbH, Marburg, Germany); and thrombin time (TT) was determined using BC Thrombin Reagent test (Dade Behring GmbH, Marburg, Germany).
(§4) Whole blood was taken from a single volunteer and enriched with trisodium citrate (0.3 mL of a 0.106 molar solution per 3 mL whole blood) (S-Monovette®, Sarstedt, Nümbrecht, Germany). Portions of 1.8 mL citrate blood were mixed with 0.2 mL NCT in 0.9% saline. The following final (after dilution in blood) NCT concentrations were tested separately: 1% (55 mM); 0.5% (27.5 mM); 0.25% (13.75 mM); 0.1% (5.5 mM); 0.05% (2.75 mM); 0.025% (1.375 mM); and 0.01% (0.55 mM). A control without NCT was performed in parallel. The following commercial coagulation tests were performed according to the prescription of the manufacturer: prothrombin time (PT) was determined using Thromborel® S test (Dade Behring GmbH, Marburg, Germany), activated partial thromboplastin time (aPTT) was determined using Pathromtin* SL test (Dade Behring GmbH, Marburg, Germany); thrombin time (TT) was determined using BC Thrombin Reagent test (Dade Behring GmbH, Marburg, Germany); and fibrinogen was determined using Multifibren* U test (Dade Behring GmbH, Marburg, Germany).
as §1

citrate blood [2] = assay: Prothrombin time (PT), Thromborel S test; details: for PT (%): Example 6, single volunteer; for Prothrombin time (PT) / Prothrombin time (PT), mean value: Example 7; for Prothrombin time (PT): individual subjects 1-11; for Prothrombin time (PT), mean value: mean of 11 subjects
Protocol: as §2, §3, §4, §1

[3] = Example 5, 1% NCT final concentration in citrate blood

SMILES: O=S(=O)(O)CCNCl [NCT, N-chlorotaurine]
- Antithrombin III (Antithrombin III; 0.01% NCT): 92% and 79% and 101% and 85% and 82% and 81% and 94% and 75% and 95% and 80% and 84%
- Antithrombin III, mean value (Antithrombin III; 0.01% NCT): 86.2%
- Antithrombin III (Antithrombin III; 0.025% NCT): 90% and 81% and 101% and 79% (3×) and 80% and 87% and 73% and 94% and 78%
- Antithrombin III, mean value (Antithrombin III; 0.025% NCT): 83.7%
- thrombin time (citrate blood [1]; [3]): above the test limits
- TT (citrate blood [1]; 0.01% (0.55 mM) NCT final): 19.5 s
- TT (citrate blood [1]; 0.025% (1.375 mM) NCT final): 26.6 s
- TT (citrate blood [1]; 0.05% (2.75 mM) NCT final): 48.8 s
- TT (citrate blood [1]; 0.1% (5.5 mM) NCT final): 92.2 s
- TT (citrate blood [1]; 0.25% (13.75 mM) NCT final): 101.8 s
- TT (sec) (citrate blood [1]; 0.5% (27.5 mM) NCT final): >limit
- TT (sec) (citrate blood [1]; 1% (55 mM) NCT final): >limit
- Thrombin time (TT) (citrate blood [1]; 0.01% NCT): 22 sec (5×) and 24 sec (2×) and 32 sec and 23 sec (3×)
- Thrombin time (TT), mean value (citrate blood [1]; 0.01% NCT): 23.5 s
- Thrombin time (TT) (citrate blood [1]; 0.025% NCT): 44 sec (2×) and 39 sec and 59 sec and 43 sec and 52 sec and 55 sec and 48 sec and 40 sec and 45 sec and 35 sec
- Thrombin time (TT), mean value (citrate blood [1]; 0.025% NCT): 45.8 s
- prothrombin time (citrate blood [2]; [3]): above the test limits
- PT (%) (citrate blood [2]; 0.01% (0.55 mM) NCT final): 91.4%
- PT (%) (citrate blood [2]; 0.025% (1.375 mM) NCT final): 70.6%
- PT (%) (citrate blood [2]; 0.05% (2.75 mM) NCT final): 33.4%
- PT (%) (citrate blood [2]; 0.1% (5.5 mM) NCT final): <limit
- PT (%) (citrate blood [2]; 0.25% (13.75 mM) NCT final): <limit
- PT (%) (citrate blood [2]; 0.5% (27.5 mM) NCT final): <limit
- PT (%) (citrate blood [2]; 1% (55 mM) NCT final): <limit
- Prothrombin time (PT) (citrate blood [2]; 0.01% NCT): 70% and 59% and 95% and 62% and 88% and 61% and 86% and 72% and 77% and 74% and 79%
- Prothrombin time (PT), mean value (citrate blood [2]; 0.01% NCT): 74.8%
- Prothrombin time (PT) (citrate blood [2]; 0.025% NCT): 28% and 20% and 50% and 10% and 21% and 16% (2×) and 25% and 36% and 24% and 32%
- Prothrombin time (PT), mean value (citrate blood [2]; 0.025% NCT): 25.3%
